Values of other authors as cited in patent publication US7655212B2, “Production of silver sulfate grains using a fluorinated additive” (Eastman Kodak Company, priority 2008, dated 2010).

How the values were obtained:
Details in all cases: in polymethylmethacrylate bone cement at 0.5% concentration
[1] = system: Staphylococcus aureus
[2] = system: Escherichia coli
[3] = system: Pseudomonas aeruginosa

silver oxide
significantly inhibit: inhibition of bacterial growth of Staphylococcus aureus [1] | inhibition of bacterial growth of Escherichia coli [2] | inhibition of bacterial growth of Pseudomonas aeruginosa [3]

[Cl][Ag] [Silver chloride]
significantly inhibit: inhibition of bacterial growth of Staphylococcus aureus [1] | inhibition of bacterial growth of Escherichia coli [2] | inhibition of bacterial growth of Pseudomonas aeruginosa [3]

O=S(=O)([O-])[O-].[Ag+].[Ag+] [silver sulfate]
significantly inhibit: inhibition of bacterial growth of Staphylococcus aureus [1] | inhibition of bacterial growth of Escherichia coli [2] | inhibition of bacterial growth of Pseudomonas aeruginosa [3]
